The NIST ThermoML archive (doi:10.1016/j.jct.2005.03.006)

Experiment: wn = mass fraction of the nth substance listed
Conditions: Liquid, Buoyancy - hydrostatic balance

CCc1ccccc1 [ethylbenzene] + CO
mass density [kg/m3]
Conditions	100 kPa	5000 kPa	9900 kPa	19700 kPa	29700 kPa	39300 kPa	49100 kPa	58900 kPa
292.05 K, w2 = 0.5	830.6	834.1	838.5	845.6	852.2	858.6	864.4	871.2
292.4 K, w2 = 0.75	813.3	817.6	822.1	827.7	836.5	843	848.8	855.8
292.65 K, w2 = 0.25	848	851.5	855.3	862.7	868.8	874.8	880.7	886.8
314.55 K, w2 = 0.5	810.8	815.2	819.6	827.8	835.2	842	848.6	854.4
314.65 K, w2 = 0.25	828.6	833.1	837.2	845.1	852	859	869.3	871.5
317.6 K, w2 = 0.75	795.3	799.8	804	810.8	820.2	827.4	–	840.4
335.35 K, w2 = 0.75	–	778.8	783	790.7	801.3	809.4	816.4	823.5
335.45 K, w2 = 0.25	–	815	819.5	828.3	836.8	844.1	850.4	856.4
337.65 K, w2 = 0.5	–	794.3	799.5	808.3	816.7	824.4	831.7	837.8
358.8 K, w2 = 0.75	–	754.4	759.7	768.5	780.5	789.6	797.4	805.5
359.95 K, w2 = 0.25	–	790.3	796.2	807.6	817.7	825.5	831.8	838
360.45 K, w2 = 0.5	–	771.3	778.5	788.1	797.9	806.5	814.1	820.5
384.05 K, w2 = 0.75	–	725.4	732.8	743	757.2	767.3	776.2	785.4
384.45 K, w2 = 0.5	–	744	754.8	766.4	777.5	786.6	797.7	801.6
385.75 K, w2 = 0.25	–	763.2	770.7	785.7	797.4	806	813	819.7
407.15 K, w2 = 0.25	–	739	748.1	765	778.9	–	796.4	804.1
408.15 K, w2 = 0.5	–	713.2	729.5	742.4	754.8	765.3	774.1	783
410.05 K, w2 = 0.75	–	691	701	714.3	731.6	742.6	753.1	763
433.5 K, w2 = 0.25	–	707.9	719.4	739	755.8	767	775	784.4
434.15 K, w2 = 0.5	–	677.4	695.9	712.8	728.6	741.1	751.2	761.4
434.35 K, w2 = 0.75	–	654.7	668.2	686	706.5	719	730.7	742.3
459.55 K, w2 = 0.75	–	608.3	628.7	651.4	677.4	692.5	706.4	719.5
460.25 K, w2 = 0.5	–	634.7	653.7	677.5	697.7	713.4	726.4	738.3
460.45 K, w2 = 0.25	–	668.7	683.4	708.2	727.1	740.5	751.2	761.5
489.65 K, w2 = 0.75	–	527.2	571	607	640.3	659.7	677.3	692.8
491.15 K, w2 = 0.5	–	554	594.2	633.2	656.5	–	693	708.6
497.95 K, w2 = 0.25	–	623	640.4	671	693.7	710.4	724.5	736
